Source: patent US12371428B2 (Exelixis, Inc., priority 2019, dated 2025)
Like-named read-outs stand apart in the source and are kept apart here.

What was measured:
Type in all cases: cell-based
[1] = molecular target: Met (phospho-Met, HGF-stimulated PC-3 prostate cancer cells) (Homo sapiens (Human), UniProt P08581); test: Met autophosphorylation ELISA in PC-3 cells (Example F); details: cellular activity, read-out: c-Met IC50
How it was run: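 PC-3 cells, serum-starved 3 h, were treated with compounds (8-point dose curve, 0.3% DMSO final) for 1 h, then stimulated with 100 ng/mL recombinant human HGF for 10 min. Lysate phospho-Met (panTyr) was quantified by sandwich ELISA; IC50 from 4-parameter logistic fit.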

[2] = molecular target: AXL (phospho-AXL, Gas6-stimulated A-172 glioblastoma cells) (Homo sapiens (Human), UniProt P30530); test: AXL autophosphorylation ELISA in A-172 cells (Example E)
AXL (phospho-AXL, Gas6-stimulated A-172 glioblastoma cells), sequence (P30530 26-894): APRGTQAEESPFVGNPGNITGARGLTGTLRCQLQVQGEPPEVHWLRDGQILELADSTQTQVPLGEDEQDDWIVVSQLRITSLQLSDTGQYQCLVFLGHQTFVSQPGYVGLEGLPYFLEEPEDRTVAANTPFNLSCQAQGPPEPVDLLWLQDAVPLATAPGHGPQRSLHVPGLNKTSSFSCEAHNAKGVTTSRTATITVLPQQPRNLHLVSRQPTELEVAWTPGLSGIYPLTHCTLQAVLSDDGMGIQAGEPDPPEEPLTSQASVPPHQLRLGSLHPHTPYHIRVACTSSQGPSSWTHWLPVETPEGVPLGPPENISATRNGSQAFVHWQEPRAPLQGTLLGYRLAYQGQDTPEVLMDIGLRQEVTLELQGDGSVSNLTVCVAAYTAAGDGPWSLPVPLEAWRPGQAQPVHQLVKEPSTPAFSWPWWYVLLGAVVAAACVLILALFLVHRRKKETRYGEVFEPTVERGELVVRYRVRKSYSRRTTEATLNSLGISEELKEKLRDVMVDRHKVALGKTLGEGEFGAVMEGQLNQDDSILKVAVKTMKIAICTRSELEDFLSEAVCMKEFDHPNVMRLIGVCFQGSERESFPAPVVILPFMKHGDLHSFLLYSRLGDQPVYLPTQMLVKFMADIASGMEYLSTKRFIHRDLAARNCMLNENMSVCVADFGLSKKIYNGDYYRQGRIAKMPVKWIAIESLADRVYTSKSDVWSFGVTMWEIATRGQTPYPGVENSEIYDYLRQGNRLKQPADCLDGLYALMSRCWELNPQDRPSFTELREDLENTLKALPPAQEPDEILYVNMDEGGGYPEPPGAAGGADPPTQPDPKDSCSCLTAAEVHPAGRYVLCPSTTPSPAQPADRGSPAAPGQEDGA
How it was run: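 Phospho-AXL in lysates was quantified by ELISA, normalised to DMSO (100%) and reference inhibitor (0%) controls. IC50 by 4-parameter logistic fit.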

[3] = molecular target: Mer (phospho-Mer, MERTK-transfected 293A cells) (Homo sapiens (Human), UniProt Q12866); test: Mer autophosphorylation ELISA in transient transfected 293A cells (Example H); details: cellular activity
Mer (phospho-Mer, MERTK-transfected 293A cells), sequence (Q12866 21-999): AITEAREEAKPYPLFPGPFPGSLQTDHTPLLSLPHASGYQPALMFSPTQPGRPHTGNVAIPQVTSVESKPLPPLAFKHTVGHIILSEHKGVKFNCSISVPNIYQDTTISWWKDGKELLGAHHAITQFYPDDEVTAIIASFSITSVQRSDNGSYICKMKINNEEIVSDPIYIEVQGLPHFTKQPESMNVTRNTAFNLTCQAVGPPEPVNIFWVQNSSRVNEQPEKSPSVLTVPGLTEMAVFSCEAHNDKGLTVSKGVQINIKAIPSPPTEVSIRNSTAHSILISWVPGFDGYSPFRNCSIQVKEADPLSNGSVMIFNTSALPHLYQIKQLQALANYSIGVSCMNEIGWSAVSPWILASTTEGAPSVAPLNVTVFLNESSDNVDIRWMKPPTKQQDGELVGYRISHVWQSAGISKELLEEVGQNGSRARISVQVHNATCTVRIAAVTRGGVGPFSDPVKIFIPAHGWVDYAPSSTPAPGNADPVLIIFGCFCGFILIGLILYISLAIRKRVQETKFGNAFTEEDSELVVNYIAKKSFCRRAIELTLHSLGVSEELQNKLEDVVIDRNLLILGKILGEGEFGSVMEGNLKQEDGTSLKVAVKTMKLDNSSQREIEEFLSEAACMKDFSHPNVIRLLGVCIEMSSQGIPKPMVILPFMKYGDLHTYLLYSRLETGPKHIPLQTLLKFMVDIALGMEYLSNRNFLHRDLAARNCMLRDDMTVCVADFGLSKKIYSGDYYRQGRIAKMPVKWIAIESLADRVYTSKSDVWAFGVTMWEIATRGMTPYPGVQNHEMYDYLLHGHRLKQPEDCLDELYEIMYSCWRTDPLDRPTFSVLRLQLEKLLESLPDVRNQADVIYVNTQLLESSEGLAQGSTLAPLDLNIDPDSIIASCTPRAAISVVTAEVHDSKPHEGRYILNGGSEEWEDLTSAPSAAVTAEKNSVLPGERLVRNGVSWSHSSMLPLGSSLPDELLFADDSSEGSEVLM
How it was run: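 293A cells transiently transfected with human MERTK were treated 1 h in serum-free medium with an 8-point compound dilution (0.3% DMSO final). Lysates were assayed by phospho-Mer sandwich ELISA against a phospho-Mer standard; IC50 came from a 4-parameter logistic fit, normalised to DMSO (100%) and reference-inhibitor (0%) controls.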

[4] = molecular target: KDR (phospho-KDR, VEGF165-stimulated HUVEC cells) (Homo sapiens (Human), UniProt P35968); test: KDR autophosphorylation ELISA in HUVEC cells (Example G); details: cellular activity
KDR (phospho-KDR, VEGF165-stimulated HUVEC cells), sequence (P35968 20-1356): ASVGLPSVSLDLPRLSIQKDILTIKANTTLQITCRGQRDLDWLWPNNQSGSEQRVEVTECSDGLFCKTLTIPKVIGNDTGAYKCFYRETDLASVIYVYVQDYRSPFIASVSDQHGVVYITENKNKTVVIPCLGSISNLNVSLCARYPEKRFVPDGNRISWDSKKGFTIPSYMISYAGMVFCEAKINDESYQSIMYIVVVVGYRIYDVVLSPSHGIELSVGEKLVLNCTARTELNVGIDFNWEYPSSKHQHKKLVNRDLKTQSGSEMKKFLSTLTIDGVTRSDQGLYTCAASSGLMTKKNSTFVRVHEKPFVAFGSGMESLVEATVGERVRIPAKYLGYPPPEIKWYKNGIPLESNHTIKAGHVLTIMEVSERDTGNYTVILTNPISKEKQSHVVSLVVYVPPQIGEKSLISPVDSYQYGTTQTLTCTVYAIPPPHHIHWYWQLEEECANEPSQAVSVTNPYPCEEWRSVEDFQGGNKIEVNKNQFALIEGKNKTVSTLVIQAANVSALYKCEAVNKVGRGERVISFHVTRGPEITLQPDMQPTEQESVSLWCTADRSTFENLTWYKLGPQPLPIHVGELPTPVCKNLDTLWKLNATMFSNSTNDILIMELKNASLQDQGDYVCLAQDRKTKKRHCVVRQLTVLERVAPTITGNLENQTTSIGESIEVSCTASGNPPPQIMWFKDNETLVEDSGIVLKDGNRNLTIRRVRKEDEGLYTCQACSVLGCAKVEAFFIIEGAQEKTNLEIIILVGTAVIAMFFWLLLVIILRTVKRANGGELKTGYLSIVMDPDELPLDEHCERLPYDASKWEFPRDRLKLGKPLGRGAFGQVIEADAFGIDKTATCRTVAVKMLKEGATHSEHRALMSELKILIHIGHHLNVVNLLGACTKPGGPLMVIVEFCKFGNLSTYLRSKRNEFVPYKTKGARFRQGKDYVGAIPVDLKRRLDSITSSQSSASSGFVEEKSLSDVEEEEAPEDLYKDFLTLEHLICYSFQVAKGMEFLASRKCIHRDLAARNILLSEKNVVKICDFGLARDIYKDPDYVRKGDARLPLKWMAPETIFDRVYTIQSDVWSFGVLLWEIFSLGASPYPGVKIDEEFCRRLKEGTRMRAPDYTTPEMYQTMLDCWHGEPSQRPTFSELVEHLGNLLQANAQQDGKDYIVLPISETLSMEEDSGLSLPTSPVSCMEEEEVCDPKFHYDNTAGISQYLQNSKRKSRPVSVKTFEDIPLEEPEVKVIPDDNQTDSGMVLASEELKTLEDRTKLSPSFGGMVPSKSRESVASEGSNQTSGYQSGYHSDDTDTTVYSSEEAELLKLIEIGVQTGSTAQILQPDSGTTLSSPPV
How it was run: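 IC50 values derive from nonlinear curve fitting of phospho-KDR levels measured by ELISA and interpolated from a phosphoprotein standard. Beforehand, starved HUVECs received compound (0.3% DMSO vehicle) for one hour and were activated with VEGF165 at 100 ng/mL for 5 min.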

[5] = Met autophosphorylation ELISA in PC-3 cells
[6] = cellular activity, AXL autophosphorylation ELISA in A-172 cells, read-out: Axl IC50
[7] = Mer autophosphorylation ELISA in transient transfected 293A cells
[8] = KDR autophosphorylation ELISA in HUVEC cells
[9] = cellular activity, A-172 cells, read-out: Axl IC50

Met (phospho-Met, HGF-stimulated PC-3 prostate cancer cells), sequence (P08581 25-1390): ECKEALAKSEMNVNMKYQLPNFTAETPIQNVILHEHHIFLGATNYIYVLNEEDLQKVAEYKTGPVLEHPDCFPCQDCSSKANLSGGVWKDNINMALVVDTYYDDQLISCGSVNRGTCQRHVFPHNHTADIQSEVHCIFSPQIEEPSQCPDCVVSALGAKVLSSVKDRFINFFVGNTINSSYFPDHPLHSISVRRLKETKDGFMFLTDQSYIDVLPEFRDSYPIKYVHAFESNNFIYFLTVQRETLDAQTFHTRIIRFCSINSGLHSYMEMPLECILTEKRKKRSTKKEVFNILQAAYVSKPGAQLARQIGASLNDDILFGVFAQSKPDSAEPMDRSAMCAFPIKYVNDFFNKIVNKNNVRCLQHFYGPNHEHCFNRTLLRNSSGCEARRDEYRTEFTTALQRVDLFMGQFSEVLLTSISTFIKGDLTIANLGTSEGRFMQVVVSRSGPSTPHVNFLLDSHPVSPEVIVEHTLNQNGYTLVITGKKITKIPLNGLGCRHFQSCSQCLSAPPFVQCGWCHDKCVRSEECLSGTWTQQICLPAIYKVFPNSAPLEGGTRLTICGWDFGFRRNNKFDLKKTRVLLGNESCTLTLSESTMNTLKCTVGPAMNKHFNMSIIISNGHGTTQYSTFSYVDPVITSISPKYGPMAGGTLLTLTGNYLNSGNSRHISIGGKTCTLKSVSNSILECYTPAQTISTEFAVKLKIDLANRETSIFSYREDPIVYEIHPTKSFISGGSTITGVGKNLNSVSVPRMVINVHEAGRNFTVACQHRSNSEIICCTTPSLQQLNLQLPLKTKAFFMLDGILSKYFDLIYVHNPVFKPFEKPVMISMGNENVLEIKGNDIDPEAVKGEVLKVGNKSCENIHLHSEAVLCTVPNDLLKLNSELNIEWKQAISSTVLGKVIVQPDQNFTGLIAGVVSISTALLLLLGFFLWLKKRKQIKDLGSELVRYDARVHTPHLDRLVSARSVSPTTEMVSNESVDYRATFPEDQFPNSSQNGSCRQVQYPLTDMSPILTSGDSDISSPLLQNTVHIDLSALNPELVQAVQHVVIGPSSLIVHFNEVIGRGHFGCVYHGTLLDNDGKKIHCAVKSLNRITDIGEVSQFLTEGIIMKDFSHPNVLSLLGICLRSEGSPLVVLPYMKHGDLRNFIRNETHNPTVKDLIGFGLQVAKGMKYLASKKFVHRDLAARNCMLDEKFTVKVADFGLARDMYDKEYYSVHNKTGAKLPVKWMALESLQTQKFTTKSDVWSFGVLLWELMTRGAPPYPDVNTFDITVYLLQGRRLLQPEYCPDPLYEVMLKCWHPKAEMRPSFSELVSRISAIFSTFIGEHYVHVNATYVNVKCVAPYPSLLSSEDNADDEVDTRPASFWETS

SMILES | IC50 [1, 5] [nM] | IC50 [2, 6] [nM] | IC50 [3, 7] [nM] | IC50 [4, 8] [nM] | IC50 ([1]; PC-3 cells) [nM] | IC50 [2, 9] [nM] | IC50 ([3]; transfected 293A cells) [nM] | IC50 ([4]; HUVEC cells) [nM] | IC50 [2] [nM]
COc1cnc2c(Oc3ccc(NC(=O)c4c(C)ccn(-c5ccc(F)cc5C)c4=O)cc3F)ccnc2c1 [Compound 334, N-[3-fluoro-4-[(7-methoxy-1,5-naphthyridin-4-yl)oxy]phenyl]-1-(4-fluoro-2-methylphenyl)-4-methyl-2-oxopyridine-3-carboxamide] | < 100 | 100 to 300 | < 100 | < 100 |  |  |  |  | 
CCOc1nc2c(Oc3ccc(NC(=O)c4cnc(C)c(-c5ccc(F)cc5C)c4O)cc3F)ccnc2cc1OC [Compound 677, N-[4-[(6-ethoxy-7-methoxy-1,5-naphthyridin-4-yl)oxy]-3-fluorophenyl]-5-(4-fluoro-2-methylphenyl)-4-hydroxy-6-methylpyridine-3-carboxamide] | < 100 | < 100 | < 100 | < 100 |  |  |  |  | 
COc1cnc2c(Oc3ccc(NC(=O)c4cc(C(C)=O)c(C)n(-c5ccc(F)cc5)c4=O)cc3F)ccnc2c1 [Compound 656, 5-acetyl-N-[3-fluoro-4-[(7-methoxy-1,5-naphthyridin-4-yl)oxy]phenyl]-1-(4-fluorophenyl)-6-methyl-2-oxopyridine-3-carboxamide] | < 100 | < 100 | < 100 | > 300 |  |  |  |  | 
COCCOc1cc2ncnc(Oc3ccc(NC(=O)c4ccc(C)n(-c5ccc(F)cc5)c4=O)cc3F)c2nc1OC [Compound 638, N-[3-fluoro-4-[6-methoxy-7-(2-methoxyethoxy)pyrido[3,2-d]pyrimidin-4-yl]oxyphenyl]-1-(4-fluorophenyl)-6-methyl-2-oxopyridine-3-carboxamide] | < 100 | < 100 | < 100 | < 100 |  |  |  |  | 
COc1cc2nccc(Oc3ccc(NC(=O)c4c(C)c(C(N)=O)c(C)n(-c5ccc(F)cc5)c4=O)cc3)c2nc1OC [Compound 319, 5-N-[4-[(6,7-Dimethoxy-1,5-naphthyridin-4-yl)oxy]phenyl]-1-(4-fluorophenyl)-2,4-dimethyl-6-oxopyridine-3,5-dicarboxamide] | < 100 | < 100 | < 100 | > 300 |  |  |  |  | 
CCOc1nc2c(Oc3ccc(NC(=O)c4c(COC)nc(C)c(-c5ccc(F)cc5)c4O)cc3F)ccnc2cc1OC [Compound 676, N-[4-[(6-ethoxy-7-methoxy-1,5-naphthyridin-4-yl)oxy]-3-fluorophenyl]-5-(4-fluorophenyl)-4-hydroxy-2-(methoxymethyl)-6-methylpyridine-3-carboxamide] | < 100 | < 100 | < 100 | < 100 |  |  |  |  | 
COCCOc1cnc2c(Oc3ccc(NC(=O)c4c(C)nc(C)c(-c5ccc(F)cc5C)c4O)cc3)ccnc2c1 [Compound 724, 5-(4-fluoro-2-methylphenyl)-4-hydroxy-N-[4-[[7-(2-methoxyethoxy)-1,5-naphthyridin-4-yl]oxy]phenyl]-2,6-dimethylpyridine-3-carboxamide] | < 100 | < 100 | < 100 | < 100 |  |  |  |  | 
Cc1cnc(C(=O)Nc2ccc(Oc3ccnc4cnc(Cl)cc34)c(F)c2)c(=O)n1-c1ccc(F)cc1 [Compound 498, N-[4-[(6-chloro-1,7-naphthyridin-4-yl)oxy]-3-fluorophenyl]-4-(4-fluorophenyl)-5-methyl-3-oxopyrazine-2-carboxamide] | < 100 | < 100 | < 100 | > 300 |  |  |  |  | 
COc1cnc2c(Oc3cc(F)c(NC(=O)c4c(C)nc(C)c(-c5ccc(F)cc5C)c4O)cc3Cl)ccnc2c1 [Compound 770, N-[5-chloro-2-fluoro-4-[(7-methoxy-1,5-naphthyridin-4-yl)oxy]phenyl]-5-(4-fluoro-2-methylphenyl)-4-hydroxy-2,6-dimethylpyridine-3-carboxamide] | < 100 | < 100 | < 100 | < 100 |  |  |  |  | 
CCOc1nc2c(Oc3ccc(NC(=O)c4c(C)nc(C)c(-c5ccc(F)cc5C)c4O)cc3F)ccnc2cc1OC [Compound 678, N-[4-[(6-ethoxy-7-methoxy-1,5-naphthyridin-4-yl)oxy]-3-fluorophenyl]-5-(4-fluoro-2-methylphenyl)-4-hydroxy-2,6-dimethylpyridine-3-carboxamide] | < 100 | < 100 | < 100 | < 100 |  |  |  |  | 

The next lines start with the values.

IC50 [1, 5] [nM] | IC50 [2, 6] [nM] | IC50 [3, 7] [nM] | IC50 [4, 8] [nM] | IC50 ([1]; PC-3 cells) [nM] | IC50 [2, 9] [nM] | IC50 ([3]; transfected 293A cells) [nM] | IC50 ([4]; HUVEC cells) [nM] | IC50 [2] [nM] | SMILES
 |  |  |  | < 100 | < 100 | < 100 | > 300 |  | COc1cc2nccc(Oc3ccc(NC(=O)c4c(C)n(CC(F)F)cc(-c5ccc(F)c(F)c5)c4=O)cc3F)c2nc1OC [Compound 816, 1-(2,2-difluoroethyl)-5-(3,4-difluorophenyl)-N-[4-[(6,7-dimethoxy-1,5-naphthyridin-4-yl)oxy]-3-fluorophenyl]-2-methyl-4-oxopyridine-3-carboxamide]
< 100 | < 100 | < 100 | < 100 |  |  |  |  |  | COc1cc2nccc(Oc3ccc(NC(=O)c4c(C)nnc(-c5ccc(F)cc5)c4OC)cc3F)c2nc1OC [Compound 657, N-[4-[(6,7-dimethoxy-1,5-naphthyridin-4-yl)oxy]-3-fluorophenyl]-6-(4-fluorophenyl)-5-methoxy-3-methylpyridazine-4-carboxamide]
< 100 |  | < 100 | 100 to 300 |  |  |  |  | < 100 | COc1cc2nccc(Oc3ccc(NC(=O)c4c(C)n(C)nc(-c5ccc(F)cc5C)c4=O)cc3F)c2nc1OC [Compound 750, N-[4-[(6,7-dimethoxy-1,5-naphthyridin-4-yl)oxy]-3-fluorophenyl]-6-(4-fluoro-2-methylphenyl)-2,3-dimethyl-5-oxopyridazine-4-carboxamide]
 |  |  |  | < 100 | < 100 | < 100 | 100 to 300 |  | COc1cnc2c(Oc3ccc(NC(=O)c4c(C)n(CCF)cc(-c5ccc(F)c(C)c5)c4=O)cc3F)ccnc2c1 [Compound 813, 1-(2-fluoroethyl)-N-[3-fluoro-4-[(7-methoxy-1,5-naphthyridin-4-yl)oxy]phenyl]-5-(4-fluoro-3-methylphenyl)-2-methyl-4-oxopyridine-3-carboxamide]
< 100 | < 100 | < 100 | < 100 |  |  |  |  |  | COc1cc2nccc(Oc3ccc(NC(=O)c4cn5c(c(-c6ccc(F)cc6)c4=O)CCC5)cc3F)c2nc1OC [Compound 362, N-[4-[(6,7-dimethoxy-1,5-naphthyridin-4-yl)oxy]-3-fluorophenyl]-8-(4-fluorophenyl)-7-oxo-2,3-dihydro-1H-indolizine-6-carboxamide]
< 100 | < 100 | < 100 | > 300 |  |  |  |  |  | CCn1cc(-c2ccc(F)cc2)c(=O)c(C(=O)Nc2ccc(Oc3ccnc4cc(OC)c(OC)nc34)cc2)c1C [Compound 244, N-[4-[(6,7-Dimethoxy-1,5-naphthyridin-4-yl)oxy]phenyl]-1-ethyl-5-(4-fluorophenyl)-2-methyl-4-oxopyridine-3-carboxamide]
< 100 | < 100 | < 100 | < 100 |  |  |  |  |  | COc1cc2nccc(Oc3ccc(NC(=O)c4cnc(C)c(-c5ccc(F)cc5F)c4O)cc3F)c2nc1OC [Compound 395, 5-(2,4-difluorophenyl)-N-[4-[(6,7-dimethoxy-1,5-naphthyridin-4-yl)oxy]-3-fluorophenyl]-4-hydroxy-6-methylpyridine-3-carboxamide]
